Values joined by “and” are separate entries in the source; they are usually repeats but may differ in a detail not shown here. Identical values can stand only once.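 Results reflect a 48-hour exposure of cells in 96-well plates to compound at five concentrations. GI50 marks 50% less growth. TGI: concentration producing complete growth inhibition.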
How the values were obtained:
Assay in all cases: inhibition of tumour cell growth, NCI panel, 48 h
[1] = system: OVCAR-5 ovarian
[2] = system: SK-OV-3 ovarian
[3] = system: SR leukemia
[4] = system: UACC-62 melanoma
[5] = system: SW-620 colon
[6] = system: NCI-H522 lung
[7] = system: NCI-H226 lung
[8] = system: SF-295 CNS
[9] = system: A498 renal
[10] = system: NCI-H460 lung

SMILES	TGI [1] [µM]	TGI [2] [µM]	TGI [3] [µM]	TGI [4]	TGI [5] [µM]	TGI [6]	TGI [7] [µM]	TGI [8] [µM]	TGI [9] [µM]	TGI [10] [µM]	GI50 [1] [µM]	GI50 [2] [µM]	GI50 [3] [µM]	GI50 [4] [µM]	GI50 [5] [µM]	GI50 [6] [µM]	GI50 [7] [µM]	GI50 [8] [µM]	GI50 [9] [µM]	GI50 [10] [µM]
O=C(c1ccc(Cl)cc1)C1OC12C(=O)Nc1ccccc12 (centres undefined)	36.2	60.4	3.22	32.3 µM	17.4	3.97 µM	40.7	33.7	36	47.1										
COc1ccc(CCc2cc(OC)c(OC)c(OC)c2)cc1	> 100	> 32.2	0.78	> 100 µM	> 100	0.115 µM	7.46	1.46	8.62	9.82										
CC(NC(=O)c1ccccc1)(C(=O)O)C(=O)O	> 100	> 100	> 100	> 100 µM	> 100	> 100 µM	> 100	> 100	> 100	> 100										
O=c1c2ccccc2oc2ccc(OCCCCCCN3CCCCCC3)cc12	13.5	8.29	4.93	4.78 µM	11	11.5 µM	20.2	5.87	6.49	11.3	3.24	2.77	1.95	2.29	3.11	2.82	4.29	2.16	2.49	3.46
CCOC(=O)C(NC(=O)c1[nH]cnc1/N=N/N(C)C)C(C)C (centres undefined)	> 100	> 100	> 100	> 100 µM	> 100	> 100 µM	> 100	> 100	> 100	> 100										
Oc1[nH]c2cc(Cl)ccc2c1/C=c1/ccc2c(c1)N=C(c1cc(F)cc(F)c1)N=2	21.5	7.95	8.53	12.4 µM	9.32	3.38 µM	31	2.84	6.36	6.77	6.34	2.38	2.22	0.71	1.1	1.19	5.78	0.509	1.24	1.64
CC(=O)Oc1ccc(/C=N/NC(N)=S)nc1	> 100	> 100	> 100	> 100 µM	> 100	> 100 µM	74.3	42.6	58.9	> 100	69	17.8	1.51	4.36	5.59	2.61	22.1	6.42	4.88	9.36
CC(=O)N(Cc1ccccc1)c1ccccc1I(=O)=O	> 100	> 100	4.37	> 100 µM	91.9	> 100 µM	> 100	> 100	> 100	58.5	> 100	81.1	0.18	> 100	29.4	22.4	> 100	48.3	49.7	22.8
CCOC(=O)[C@H]1Nc2ccccc2C2c3ccccc3CC21 (some centres undefined)	> 100		> 100	> 100 µM	> 100	> 100 µM	> 100	> 100	61.8	> 100										
COC(=O)c1c(C)nc(C)c(NO)c1-c1ccccc1C(F)(F)F	> 100	> 100	> 100	> 100 µM	30.2	33.1 µM	76.7	> 100	> 100	> 100										
S=C(NCc1ccccc1)N/N=C/c1ccccn1	> 100	> 29	> 21	25.1 µM	> 61.4	24.5 µM	17.7		> 100	> 75.6										
CN(C=O)/C=C/c1cc(O)ccc1O	63.9	> 100	51.1	46.9 µM	37.9	9.37 µM	> 78.7	47.7	> 100	> 74.7										
COc1cnc2cc(C(=O)O)c3ccccc3c2c1	> 100	> 100	> 100	> 100 µM	> 100	> 100 µM	> 100	> 100	> 100	> 100										
CO[C@@]12[C@@H]3NC3CN1C1=C(C(=O)C(N)=C(C)C1=O)[C@@H]2COC(N)=O (some centres undefined)	6.99	5.33	> 100		7.01	2.13 µM	2.78		1.21	1.44	1.02		0.0325			0.325	0.504			
COC(=O)[C@@H]1CN(C(=O)c2ccccc2)C(=O)N1C(=O)OCc1ccccc1	> 100	> 100	> 100	> 100 µM	> 100	> 100 µM	> 100	> 100	> 100	> 100										
O=C(NCCCCCCCNC(=O)OCc1ccc2c(Cl)cc(Cl)c(O)c2n1)OCc1ccc2c(Cl)cc(Cl)c(O)c2n1	3.32	14	1.41	2.13 µM	0.744	1.15 µM	1.59	3.41	2.89	3.51	1.69	3.93	0.267	0.845	0.273	0.303	0.557	1.73	1.48	1.4
CC1COCC(C)N1C1=C(Cl)C(=O)c2ccccc2C1=O (centres undefined)	32	31.8	5.97	18.8 µM	3.24	3.02 µM	31.2	17.7	27.6	33.6	17	17.9	2.28	5.85	1.74	1.59	15.1	2.94	14.4	15.8
COc1cccc(/C=C/C(=O)c2cc3c(N)c(C(=O)Nc4cccc5ccccc45)sc3nc2C)c1	4.6	> 50	> 50	4.74 µM	3.1	3.06 µM	3.27	23.1	2.74	3.45	1.42	2.24	0.296	1.09	0.538	0.435	1.2	1.67	0.885	1.22
COc1ccc(C(O)CC(O)(C(F)(F)F)C(F)(F)F)cc1 (centres undefined)	83.9	> 100	56.3	87.4 µM	> 100	> 100 µM	> 100	75.7	64.1	60.6										
Nc1ccc(S(=O)(=O)Nc2cnc3c(Cl)cccc3n2)cc1	> 750	163	> 750	> 93.3 µM and 122 µM	> 678	75 µM and 259 µM	> 750	737	597	> 750	> 80.7		23.1	56.3	52.3	15.2	> 75.6			> 77.9
O=C1C=CC2(C=C1)C[C@H](NC(=O)C(F)(F)F)C(=O)O2	> 100	> 100	> 100	37.7 µM		32.1 µM	> 100	> 100	> 100	> 100										
CC(=O)OC1CC2C(=O)C(=O)C1(C)C2(C)C (centres undefined)	> 100	> 100	> 100	> 100 µM	> 100		> 100	> 100	> 100	> 100										
CC1CC2(C)CC(=O)C1C1C(=O)N(CCN3CCCCC3)C(=O)C12 (centres undefined)	> 100	> 100	> 100	> 100 µM	> 100	> 100 µM	> 100	> 100	> 100		> 100	> 100	> 100	> 100	> 100	> 100	> 100	> 100	> 100	
CN1CCN(c2nc(-c3ccncc3)nc3sc4c(c23)CCCCCC4)CC1	22.9	24.6	12.2	24 µM	25.6	24.6 µM	34.2		7.56	29	10.8	12.2	2.81	11	11.9	12	10.4		1.06	13.5
Cc1c(C(=O)CSc2nc3ccccc3[nH]2)c(=O)n(-c2ccccc2)n1C	> 100	> 100	> 100		> 100	> 100 µM	> 100	> 100	> 100	> 100										
CS(=O)(=O)NC12CCC(c3ccccc31)c1ccccc12	> 100	> 100	> 100	> 100 µM	> 100	> 100 µM	> 100		> 100	> 100										

Source: PubChem BioAssay (NCI)
